Data published in patent US8338420B1, “Treatment of Parkinson's disease and enhancement of dopamine signal using PDE 10 inhibitor” (Mitsubishi Tanabe Pharma Corporation, priority 2002, dated 2012).

Legend:
PDE2 = target: T1, PDE2 (Bos taurus, UniProt P14099); test: PDE assay, PDE2 enzyme solution from bovine adrenal gland; type: biochemical, Japanese Black Cattle; details: substrate about 12 nM [3H]-cGMP and 1 μM cGMP
T1 construct: tissue Tokyo Shibaura Zoki; host or cells: bovine adrenal gland, soluble fraction, ion-exchange fractions
T1 sequence (P14099 1-921): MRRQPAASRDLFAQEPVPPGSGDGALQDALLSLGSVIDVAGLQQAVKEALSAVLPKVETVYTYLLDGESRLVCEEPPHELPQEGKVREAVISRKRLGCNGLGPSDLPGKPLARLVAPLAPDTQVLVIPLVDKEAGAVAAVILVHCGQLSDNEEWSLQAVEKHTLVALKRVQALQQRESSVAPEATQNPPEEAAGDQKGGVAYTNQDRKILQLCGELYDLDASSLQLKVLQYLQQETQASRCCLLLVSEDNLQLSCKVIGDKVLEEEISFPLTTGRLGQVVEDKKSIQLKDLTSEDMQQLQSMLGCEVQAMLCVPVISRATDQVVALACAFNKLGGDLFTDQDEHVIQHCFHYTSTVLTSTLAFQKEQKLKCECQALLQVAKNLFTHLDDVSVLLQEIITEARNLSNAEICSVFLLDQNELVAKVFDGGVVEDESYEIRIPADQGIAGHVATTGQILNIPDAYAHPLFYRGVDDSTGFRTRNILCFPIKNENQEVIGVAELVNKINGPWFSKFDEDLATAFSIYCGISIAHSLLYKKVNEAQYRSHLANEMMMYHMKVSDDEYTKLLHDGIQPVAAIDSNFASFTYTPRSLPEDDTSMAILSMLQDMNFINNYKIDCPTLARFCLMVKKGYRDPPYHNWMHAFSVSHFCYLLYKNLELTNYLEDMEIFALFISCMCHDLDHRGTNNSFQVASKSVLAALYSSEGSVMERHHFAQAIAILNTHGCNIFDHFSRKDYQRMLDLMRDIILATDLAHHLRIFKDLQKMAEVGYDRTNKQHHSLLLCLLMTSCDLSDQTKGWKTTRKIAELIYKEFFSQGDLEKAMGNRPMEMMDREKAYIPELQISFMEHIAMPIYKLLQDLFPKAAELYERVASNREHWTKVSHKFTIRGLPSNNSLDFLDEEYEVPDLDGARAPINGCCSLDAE
Method: One adrenal gland of Japanese Black Cattle, purchased from Tokyo Shibaura Zoki, co., Ltd. was washed with 100 ml of ice-cold saline (0.9% sodium chloride) twice. Subsequently, the tissues were cut into about 1 gram, and it was frozen by liquid nitrogen. To about 2 g of this tissue sample was added 10 ml of an ice-cold homogenization buffer II (25 mM Tris-HCl, pH 7.5, 4 mM magnesium chloride, 0.5 mM EGTA, 2 mM dithiothreitol, 4 mM benzamidine, 0.1 mM phenylmethylsulfonyl fluoride), and the homogenate that was homogenized by Polytron homogenizer for 3 minutes was centrifuged at 8000 rpm, at 4° C. for 20 minutes, and the obtained supernatant was further centrifuged by an ultracentrifuge at 50000 rpm, at 4° C. for 60 minutes. The resultant supernatant was stored at 4° C.
This supernatant was applied to chromatography under the FPLC system, in the same manner as in Example 1 (1) above. […]
Subsequently, the eluted fractions were used as an enzyme solution for PDE assay, and cGMP-hydrolyzing activity was measured. Or, cAMP-hydrolyzing activity was measured for respective fractions, in the presence or absence of unlabeled cGMP. […]

PDE4 = test: PDE assay, PDE4 enzyme solution from dog lung; type: biochemical, mixed-breed dog; details: substrate about 4.8 nM [3H]-cAMP and 1 μM cAMP
Method: These fractions were collected and glycerol was added thereto to become 50%, and the mixture was stored at −20° C.

IC50 (PDE2): > 1000 nM
IC50 (PDE4): 160 nM
SMILES: COc1ccc(-c2cc(N3CCCC3)nc(/C=C/c3nc(-n4ccnc4)c4ccccc4n3)n2)cc1OC [Compound A, 2-{(E)-2-[4-(1-imidazolyl)-quinazolin-2-yl]}ethenyl-4-(3,4-dimethoxy)phenyl-6-(pyrrolidin-1-yl)pyrimidine]
